# From patent US20150166523A1, “BRANCHED CHAIN ALKYL HETEROAROMATIC RING DERIVATIVE” (TAISHO PHARMACEUTICAL CO., LTD., priority 2012, published 2015)
# Columns and labels:
# [1] = molecular target: T1, human orexin-1 receptor (hOX1R) (Homo sapiens, UniProt O43613); experiment: Measurement of orexin antagonistic activity (intracellular Ca2+ fluorescence, FDSS) on hOX1R; format: cell-based; conditions: CHO cells forcibly expressing hOX1R; Fluo-4AM; ligand peptide (substituted human orexin-A) 300 pM; compound preincubated 30 minutes; read-out: IC50 Value OX1
# T1 construct: expressed in transfected cells; host or cells: Chinese hamster ovary (CHO) cells
# T1 sequence (O43613 1-425): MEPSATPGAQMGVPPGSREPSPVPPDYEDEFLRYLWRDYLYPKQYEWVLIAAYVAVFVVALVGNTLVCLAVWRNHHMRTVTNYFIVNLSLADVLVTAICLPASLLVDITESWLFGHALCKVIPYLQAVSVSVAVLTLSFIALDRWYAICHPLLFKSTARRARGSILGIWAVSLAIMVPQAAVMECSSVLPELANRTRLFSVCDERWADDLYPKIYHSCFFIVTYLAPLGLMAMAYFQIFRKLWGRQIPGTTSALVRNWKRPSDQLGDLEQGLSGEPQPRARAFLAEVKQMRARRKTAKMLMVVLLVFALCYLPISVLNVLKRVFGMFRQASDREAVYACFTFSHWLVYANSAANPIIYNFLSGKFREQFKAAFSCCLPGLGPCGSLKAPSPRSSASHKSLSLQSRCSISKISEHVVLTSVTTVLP
# How it was run: (§1)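 CHO cells stably expressing hOX1R or hOX2R, loaded with 0.5 μM Fluo-4AM in HEPES/HBSS buffer with 0.1% BSA and 2.5 mM probenecid, pH 7.4, then preincubated 30 min with compound. Fluorescence recorded each second for 3 min by FDSS; maximum intensity taken as intracellular Ca2+ indicator of antagonism.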
# [2] = molecular target: T2, orexin-2 receptor (hOX2R) (Homo sapiens, UniProt O43614); experiment: Measurement of orexin antagonistic activity (intracellular Ca2+ fluorescence, FDSS) on hOX2R; format: cell-based; conditions: CHO cells forcibly expressing hOX2R; Fluo-4AM; ligand peptide (substituted human orexin-A) 3 nM; compound preincubated 30 minutes; read-out: IC50 Value OX2
# T2 construct: expressed in transfected cells; host or cells: Chinese hamster ovary (CHO) cells
# T2 sequence (O43614 1-444): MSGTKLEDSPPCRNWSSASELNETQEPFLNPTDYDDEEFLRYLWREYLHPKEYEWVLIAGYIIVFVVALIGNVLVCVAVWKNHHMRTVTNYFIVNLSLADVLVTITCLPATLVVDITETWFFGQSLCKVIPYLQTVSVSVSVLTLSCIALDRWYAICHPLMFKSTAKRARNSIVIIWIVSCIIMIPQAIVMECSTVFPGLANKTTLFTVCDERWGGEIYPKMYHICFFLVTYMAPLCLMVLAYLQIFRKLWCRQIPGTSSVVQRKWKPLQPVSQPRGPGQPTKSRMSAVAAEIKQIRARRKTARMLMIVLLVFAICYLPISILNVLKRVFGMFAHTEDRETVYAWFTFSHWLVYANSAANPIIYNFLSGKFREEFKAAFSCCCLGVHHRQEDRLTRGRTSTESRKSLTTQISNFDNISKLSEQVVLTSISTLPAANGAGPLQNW
# How it was run: as §1
IC50 [1],IC50 [2],SMILES
9.9 nM,308 nM,"CCN(C(=O)c1nc(C)ccc1-n1nccn1)[C@@H](C)Cn1cc(-c2ccc(F)cc2)nn1 [Example 83, N-Ethyl-N-{(2S)-1-[4-(4-fluorophenyl)-1H-1,2,3-triazol-1-yl]propan-2-yl}-6-methyl-3-(2H-1,2,3-triazol-2-yl)pyridine-2-carboxamide]"
3.1 nM,51.4 nM,"CCN(C(=O)c1cc(F)ccc1-n1nccn1)[C@@H](C)Cn1cc(-c2ccc(F)cc2)nn1 [Example 84, N-Ethyl-5-fluoro-N-{(2S)-1-[4-(4-fluorophenyl)-1H-1,2,3-triazol-1-yl]propan-2-yl}-2-(2H-1,2,3-triazol-2-yl)benzamide]"
1.3 nM,27.5 nM,"CCN(C(=O)c1cc(C)ccc1-n1nccn1)[C@@H](C)Cn1nnc(-c2ccc(F)cn2)n1 [Example 85, N-Ethyl-N-{(2S)-1-[5-(5-fluoropyridin-2-yl)-2H-tetrazol-2-yl]propan-2-yl}-5-methyl-2-(2H-1,2,3-triazol-2-yl)benzamide]"
37.7 nM,1030 nM,"CCN(C(=O)c1nc(C)ccc1-n1nccn1)[C@@H](C)Cn1nnc(-c2ccc(F)cn2)n1 [Example 86, N-Ethyl-N-{(2S)-1-[5-(5-fluoropyridin-2-yl)-2H-tetrazol-2-yl]propan-2-yl}-6-methyl-3-(2H-1,2,3-triazol-2-yl)pyridine-2-carboxamide]"
9.8 nM,283 nM,"CCN(C(=O)c1cc(F)ccc1-n1nccn1)[C@@H](C)Cn1nnc(-c2ccc(F)cn2)n1 [Example 87, N-Ethyl-5-fluoro-N-{(2S)-1-[5-(5-fluoropyridin-2-yl)-2H-tetrazol-2-yl]propan-2-yl}-2-(2H-1,2,3-triazol-2-yl)benzamide]"
13.4 nM,41.2 nM,"CCN(C(=O)c1cc(C)ccc1-c1ncccn1)[C@@H](C)Cn1nnc(-c2ccc(F)cn2)n1 [Example 88, N-Ethyl-N-{(2S)-1-[5-(5-fluoropyridin-2-yl)-2H-tetrazol-2-yl]propan-2-yl}-5-methyl-2-(pyrimidin-2-yl)benzamide]"
229 nM,6930 nM,"Cc1ccc(-n2nccn2)c(C(=O)N(CCN(C)C)[C@@H](C)Cn2cc(-c3ccc(F)cc3)nn2)c1 [Example 89, N-[2-(Dimethylamino)ethyl]-N-{(2S)-1-[4-(4-fluorophenyl)-1H-1,2,3-triazol-1-yl]propan-2-yl}-5-methyl-2-(2H-1,2,3-triazol-2-yl)benzamide]"
23.7 nM,2070 nM,"Cc1ccc(-n2nccn2)c(C(=O)N(CCS(C)(=O)=O)[C@@H](C)Cn2cc(-c3ccc(F)cc3)nn2)c1 [Example 90, N-{(2S)-1-[4-(4-Fluorophenyl)-1H-1,2,3-triazol-1-yl]propan-2-yl}-5-methyl-N-[2-(methylsulfonyl)ethyl]-2-(2H-1,2,3-triazol-2-yl)benzamide]"
203 nM,279 nM,"Cc1ccc(-n2nccn2)c(C(=O)N(CCC#N)[C@@H](C)Cn2cc(-c3ccc(F)cc3)nn2)c1 [Example 91, N-(2-Cyanoethyl)-N-{(2S)-1-[4-(4-fluorophenyl)-1H-1,2,3-triazol-1-yl]propan-2-yl}-5-methyl-2-(2H-1,2,3-triazol-2-yl) benzamide]"
2.5 nM,64.6 nM,"CCN(C(=O)c1cc(C)ccc1-n1nccn1)[C@@H](C)Cn1cc(-c2ccc(Cl)cc2)nn1 [Example 92, N-{(2S)-1-[4-(4-Chlorophenyl)-1H-1,2,3-triazol-1-yl]propan-2-yl}-N-ethyl-5-methyl-2-(2H-1,2,3-triazol-2-yl)benzamide]"
1.4 nM,7.4 nM,"CCN(C(=O)c1cc(C)ccc1-n1nccn1)[C@@H](C)Cn1cc(-c2cccc(O)c2)nn1 [Example 93, N-Ethyl-N-{(2S)-1-[4-(3-hydroxyphenyl)-1H-1,2,3-triazol-1-yl]propan-2-yl}-5-methyl-2-(2H-1,2,3-triazol-2-yl)benzamide]"
9.3 nM,108 nM,"CCN(C(=O)c1cc(C)ccc1-n1nccn1)[C@@H](C)Cn1cc(-c2ccccn2)nn1 [Example 94, N-Ethyl-5-methyl-N-{(2S)-1-[4-(pyridin-2-yl)-1H-1,2,3-triazol-1-yl]propan-2-yl}-2-(2H-1,2,3-triazol-2-yl) benzamide]"
0.6 nM,17.7 nM,"CCN(C(=O)c1cc(C)ccc1-n1nccn1)[C@@H](C)Cn1cc(-c2ccccc2)nn1 [Example 95, N-Ethyl-5-methyl-N-[(2S)-1-(4-phenyl-1H-1,2,3-triazol-1-yl)propan-2-yl]-2-(2H-1,2,3-triazol-2-yl)benzamide]"
160 nM,8370 nM,"CCN(C(=O)c1cc(C)ccc1-n1nccn1)[C@@H](C)Cn1cc(-c2ccc(OC)cc2)nn1 [Example 96, N-Ethyl-N-{(2S)-1-[4-(4-methoxyphenyl)-1H-1,2,3-triazol-1-yl]propan-2-yl}-5-methyl-2-(2H-1,2,3-triazol-2-yl)benzamide]"
2.4 nM,21.3 nM,"CCN(C(=O)c1cc(C)ccc1-n1nccn1)[C@@H](C)Cn1cc(-c2cccc(C)c2)nn1 [Example 97, N-Ethyl-5-methyl-N-{(2S)-1-[4-(3-methylphenyl)-1H-1,2,3-triazol-1-yl]propan-2-yl}-2-(2H-1,2,3-triazol-2-yl) benzamide]"
6.3 nM,9.8 nM,"CCN(C(=O)c1cc(C)ccc1-n1nccn1)[C@@H](C)Cn1cc(-c2cccc(F)c2)nn1 [Example 98, N-Ethyl-N-{(2S)-1-[4-(3-fluorophenyl)-1H-1,2,3-triazol-1-yl]propan-2-yl}-5-methyl-2-(2H-1,2,3-triazol-2-yl) benzamide]"
1.8 nM,1.5 nM,"CCN(C(=O)c1cc(C)ccc1-n1nccn1)[C@@H](C)Cn1cc(-c2ccc(F)c(OC)c2)nn1 [Example 99, N-Ethyl-N-{(2S)-1-[4-(4-fluoro-3-methoxyphenyl)-1H-1,2,3-triazol-1-yl]propan-2-yl}-5-methyl-2-(2H-1,2,3-triazol-2-yl)benzamide]"
10.4 nM,774 nM,"CCN(C(=O)c1cc(C)ccc1-n1nccn1)[C@@H](C)Cn1cc(-c2ccc(O)cc2)nn1 [Example 100, N-Ethyl-N-{(2S)-1-[4-(4-hydroxyphenyl)-1H-1,2,3-triazol-1-yl]propan-2-yl}-5-methyl-2-(2H-1,2,3-triazol-2-yl)benzamide]"
0.9 nM,1.5 nM,"CCN(C(=O)c1cc(C)ccc1-n1nccn1)[C@@H](C)Cn1cc(-c2cccc(OC)c2)nn1 [Example 101, N-Ethyl-N-{(2S)-1-[4-(3-methoxyphenyl)-1H-1,2,3-triazol-1-yl]propan-2-yl}-5-methyl-2-(2H-1,2,3-triazol-2-yl)benzamide]"
1.4 nM,27.9 nM,"Cc1ccc(-n2nccn2)c(C(=O)N(CC(C)O)[C@@H](C)Cn2cc(-c3ccc(F)cc3)cn2)c1 (stereo partly drawn) [Example 102, N-{(2S)-1-[4-(4-Fluorophenyl)-1H-pyrazol-1-yl]propan-2-yl}-N-(2-hydroxypropyl)-5-methyl-2-(2H-1,2,3-triazol-2-yl)benzamide]"
